The numbers were not newly measured in US20180133151A1, “NEBULIZED TIOTROPIUM” (GLENMARK SPECIALTY S.A., priority 2016, published 2018), which cites them from elsewhere.

Take `C[N+]1(C)C2CC(OC(=O)C(O)(c3cccs3)c3cccs3)CC1C1OC12` (stereo not drawn) [Tiotropium bromide, (1+,2β,4β,7β)-7-[(hydroxydi-2-thienylacetyl)oxy]-9,9-dimethyl-3-oxa-9-azoniatricyclo[3.3.1.02,4]nonane bromide]: the Solubility in methanol entry (methanol) was “soluble”. For the setting “water”, the Solubility in water entry was “sparingly soluble”.
